Laboratory results taken from patent US7388024B2, “Indeno[2,1A]indenes and isoindolo[2,1-A]indoles” (Suven Life Sciences Limited, priority 2004, dated 2008).

Molecular target: T1, Human 5HT6 Receptor (Homo sapiens, UniProt P50406)
T1 construct: expressed in transfected cells; host or cells: HEK293 cells
Experiment: Binding Assay for Human 5HT6 Receptor
Settings: [3H]LSD 1.5 nM; human recombinant receptor expressed in HEK293 cells
Protocol: Binding Assay for Human 5HT6 Receptor
Receptor source: Human recombinant expressed in HEK293 cells
Radioligand: [^3H]LSD (60-80 Ci/mmol)
Final ligand concentration—[1.5 nM]
Non-specific determinant: Methiothepin mesylate—[0.1 μM]
Reference compound: Methiothepin mesylate
Positive control: Methiothepin mesylate
Reactions are carried out in 50 mM TRIS-HCl (pH 7.4) containing 10 mM MgCl2, 0.5 mM EDTA for 60 minutes at 37° C. The reaction is terminated by rapid vacuum filtration onto glass fiber filters. Radioactivity trapped onto the filters is determined and compared to control values in order to ascertain any interactions of test compound(s) with the cloned serotonin—5HT6 binding site.
• Monsma F. J. Jr., et al., Molecular Cloning and Expression of Novel Serotonin Receptor with High Affinity for Tricyclic Psychotropic Drugs. Mol. Pharmacol. (43): 320-327 (1993).

T1 sequence (P50406 whole entry): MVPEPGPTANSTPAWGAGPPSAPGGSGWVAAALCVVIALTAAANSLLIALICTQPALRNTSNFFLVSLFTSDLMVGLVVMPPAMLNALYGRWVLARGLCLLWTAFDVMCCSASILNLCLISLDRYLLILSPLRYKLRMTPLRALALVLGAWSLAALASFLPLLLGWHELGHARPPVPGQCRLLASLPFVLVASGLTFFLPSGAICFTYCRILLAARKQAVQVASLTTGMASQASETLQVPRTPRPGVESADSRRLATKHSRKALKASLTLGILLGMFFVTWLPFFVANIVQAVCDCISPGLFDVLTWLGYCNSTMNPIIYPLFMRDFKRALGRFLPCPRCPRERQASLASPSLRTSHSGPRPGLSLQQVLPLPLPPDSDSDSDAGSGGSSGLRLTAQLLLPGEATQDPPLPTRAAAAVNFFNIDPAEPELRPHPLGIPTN

Structure (SMILES) | IC50 | Ki
COc1ccc2c(c1)c(C1CCN(C)C1)c1n2S(=O)(=O)c2ccccc2-1 (stereo not shown) [drawing 19] | 205 nM | 88.1 nM
COc1ccc2c(c1)c(C1CCN(C)C1)c1n2S(=O)(=O)c2ccccc2-1 (stereo not shown) [drawing 20] | 383 nM | 172 nM
